# Data as given in PMC5161573 (Nature, 2016).
# Molecular target: α4β2 nicotinic receptor (α4 subunit) (Homo sapiens, UniProt P17787+P43681, P17787:INS355ER/P17787:DEL356-441/P43681:INS364ER/P43681:DEL365-581)
smiles,measurement,value
CN1CCC[C@H]1c1cccnc1 [nicotine],X-ray co-crystal structure at 3.9 Å,"Nicotine binds in the classical neurotransmitter site at the α-β interface, almost fully buried from solvent."
